Reference: patent US20250059188A1, “ARYLSULPHONAMIDE COMPOUNDS” (Anaxis Pharma Pty Ltd, priority 2021, published 2025)

Key:
[1] = test system: U937 human histiocytic leukemia cell line; assay: Inhibition of TSQ induced necroptosis in U937 cells (CellTitre-Glo); details: Homo sapiens, U-937, TSQ cocktail (TNF, Smac mimetic, Q-VD-OPh), 48 hours, read-out: Inhibition of TSQ-induced necroptosis (IC50 cell-based assay)
Method in brief: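 U937 cells (20000/well) treated with compound (10-point, 1:3 from 36 μM, 0.3% DMSO) plus TSQ cocktail (hTNF-Fc 100 ng/ml, Smac mimetic 500 nM, Q-VD-OPh 10 μM), 48 h at 37 °C. Viability by CellTiter-Glo luminescence; IC50 from 4-parameter logistic fit. Counter screen: same cells without TSQ.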

human RIPK3 = human RIPK3 (Homo sapiens (Human), UniProt Q9Y572); assay: KINOMEscan binding assay, human RIPK3; details: equilibrium dissociation constant
Sequence of human RIPK3 (Q9Y572 whole entry, the tested form may be a part): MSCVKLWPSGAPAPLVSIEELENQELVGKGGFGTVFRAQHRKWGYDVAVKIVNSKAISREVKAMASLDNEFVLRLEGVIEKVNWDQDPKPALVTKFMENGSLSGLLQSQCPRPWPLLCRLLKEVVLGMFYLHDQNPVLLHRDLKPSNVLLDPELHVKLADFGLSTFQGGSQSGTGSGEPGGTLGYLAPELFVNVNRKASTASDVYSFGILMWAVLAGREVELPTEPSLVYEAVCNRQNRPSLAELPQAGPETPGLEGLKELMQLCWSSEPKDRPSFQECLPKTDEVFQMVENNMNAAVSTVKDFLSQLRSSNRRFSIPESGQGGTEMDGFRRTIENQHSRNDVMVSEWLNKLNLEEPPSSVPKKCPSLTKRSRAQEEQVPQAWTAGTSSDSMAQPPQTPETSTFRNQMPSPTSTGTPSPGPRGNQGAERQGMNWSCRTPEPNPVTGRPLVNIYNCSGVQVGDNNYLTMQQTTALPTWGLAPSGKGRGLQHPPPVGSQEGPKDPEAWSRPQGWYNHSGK
Method in brief: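 Competition binding format with qPCR detection. Kinases, either phage-fused from E. coli lysates or HEK-293-derived with a DNA tag, bound ligand-coated beads in the presence of compound (11 points, 3-fold steps, 1% DMSO, top usually 30,000 nM). Kd from nonlinear Hill fitting with slope −1.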

Row | Kd (human RIPK3) [nM] | Compound | IC50 [1] [nM]
1 | > 10000 | C[C@H](Oc1cc(-c2nn(C)c3c(-c4cnn(C5CCN(CC(F)(F)F)C(C)(C)C5)c4)cnc(N)c23)ccc1NS(=O)(=O)C(F)F)c1ccc(F)cc1 (stereo partly drawn) [Compound 167, N-(4-(4-amino-7-(1-(2,2-dimethyl-1-(2,2,2-trifluoroethyl)piperidin-4-yl)-1H-pyrazol-4-yl)-1-methyl-1H-pyrazolo[4,3-c]pyridin-3-yl)-2-((S)-1-(4-fluorophenyl)ethoxy)phenyl)-1,1-difluoromethanesulfonamide] | 10 to 1000
2 | > 10000 | CC1CN(C)CC(C)C1n1cc(-c2cnc(N)c3c(-c4ccc(NS(=O)(=O)C(F)F)c(O[C@@H](C)c5ccc(F)cc5)c4)nn(C)c23)cn1 (stereo partly drawn) [Compound 172, N-(4-{4-amino-1-methyl-7-[1-(1,3,5-trimethylpiperidin-4-yl)-1H-pyrazol-4-yl]-1H-pyrazolo[4,3-c]pyridin-3-yl}-2-[(1S)-1-(4-fluorophenyl)ethoxy]phenyl)-1,1-difluoromethanesulfonamide] | 10 to 1000
